Data set [1] relates to Colinus virginianus. As to conditions: acute, oral, mortality.
For data set [2], the system named is Aphidius rhopalosiphi. Put plainly: LR50; higher = less toxic. As to conditions: not reported; mortality.
The subject of data set [3] is Bibionidae. The following applies: chronic/long-term; duration: 28 days.
The test system of data set [4] is Anas platyrhynchos.
For data set [5], the system named is Rattus norvegicus.
Data set [6] relates to Canidae. As to conditions: chronic; duration: 1 years; oral; Dog Other; clinical chemistry.
Data set [7] has as its system Tagia sp.
Data set [8] relates to Pimephales promelas. The following applies: chronic/long-term; duration: 28 days; growth.
In data set [9] the test system is Daphnia magna. The following applies: chronic/long-term; duration: 21 days; reproduction.
Data set [10] has as its system Apis mellifera. The following applies: acute, mortality.

Two compounds from EPA's ToxValDB 9.5 (doi:10.2903/j.efsa.2008.152r) can be followed below.

Structures are written as SMILES. Where only a bound is given, the exact number is not on record here.

Turning to `NC(Cc1ncn[nH]1)C(=O)O` (configuration not stated) [1,2,4-Triazole-3-alanine], in data set [1] (diet), the LC50 was above 5000 mg/kg.
One may read the NOAEL as the highest dose or exposure tested at which no adverse effect was seen. `FC(F)C(F)(F)OCC(Cn1cncn1)c1ccc(Cl)cc1Cl` (configuration not stated) [Tetraconazole]: the LR50 in data set [2] was determined as 125 g/ha. Moreover, the NOEC in data set [3] is 4.45 mg/L; in data set [4] (reproductive) it was 1.6 mg/kg-day; in data set [7] (chronic/long-term, duration: 4 weeks), at most 8.2 mg/kg; in [8] it was 0.3 mg/L; in [9], 0.19 mg/L. Also, the LC50 came out at 55.5 mg/kg-day in [4] (short-term, oral, feed, mortality) and 71 mg/kg in [7] (acute, duration: 14 days, mortality). Moreover, the LD50 is 1030 mg/kg-day in data set [5] (acute, mortality); 132 mg/kg-day in data set [1]; 63 µg/piece in [10] (dermal); above 130 µg/piece in data set [10] (oral, unspecified). Further, the NOAEL in data set [5] (chronic, duration: 2 years, oral, diet, organ weight) is 0.4 mg/kg-day; in data set [5] (reproduction developmental, body weight), 5 mg/kg-day; in [5] (reproduction developmental, reproduction), 3.6 mg/kg-day; in data set [6], 2.95 mg/kg-day.
